Source: patent publication US20130018091A1, “TREATMENT OF ALLODYNIA AND HYPERALGESIA” (priority 2009, published 2013)

Columns and labels:
Sprague-Dawley rats [1] = experiment: Chronic sciatic nerve ligation model in rats (mechanical allodynia, Von Frey); type: in vivo, rat; conditions: 30.0 mg/kg p.o., n=8/group
Source text: Following a 10-day post-operative period after partial ligation of the sciatic nerve as described by Seltzer et al, each of the operated Sprague-Dawley rats (obtained from Charles River, Inc.) will be tested for the development of consistent, mechanical allodynia (pain response to a non-noxious stimulus). Animals are placed in a bottomless plexiglass box placed on a stainless steel platform with ¼″ holes. After at least a 30-min conditioning period in which rats are allowed to sit quietly in the cages on the platform, a baseline mechanical sensitivity is determined which represents the pre-drug 50% paw withdrawal threshold. […] The 50% threshold for foot withdrawal is determined by using the “Up and Down” step procedure. […] If the pressure of the largest diameter fiber raises the foot without a withdrawal, it is considered as “no response.” and recorded as >300 g on the data sheet.
Following the measurement of the initial predrug responses, the rats will be given an p.o. injection of tonabersat (n=8 rats per dose level). The mechanical threshold will then be assessed at 1, 2, 4, 6, 8, and 24 hrs post-injection to determine the duration of action of the test compound and the TPE in this model of mechanical allodynia. […]
The withdrawal threshold for each animal determined at each time point is computed using the “xoxox” step procedure originally developed by Dixon (1980). […]

CF1 mouse = experiment: Formalin-induced nociception model in mice (hyperalgesia and inflammation); type: in vivo; conditions: 45.0 mg/kg p.o., n=8/group; for Drug-treated AUC (duration of licking): formalin 1 hour after dosing
Experimental: An injection of 0.5% formalin is made into the planter region of a CF1 mouse (obtained from Charles River, Inc.) right hind paw. This elicits a distinct biphasic behavioral profile characterized by the mouse licking the affected paw. Immediately following the injection the mouse licks the paw for about 10 minutes. This is phase 1 (acute) and is followed by a brief latent period where there is little behavioral activity. A more prolonged period of about 20 to 30 minutes of paw licking ensues which constitutes phase 2 (inflammatory).
Prior to the administration of the test drug or vehicle each mouse undergoes a 15-minute conditioning period in one of several 6″ tall plexiglass observation tubes (4″ diameter) that are placed in front of a mirror. Following the conditioning period, doses of tonabersat will be administered p.o. and the mouse returned to its home tube. At a time determined to correlate with peak plasma levels (1 hour), formalin will be injected sub-dermally (20 ul; 27 gauge needle) into the plantar surface of the right hind foot. The bevel of the needle is placed facing down toward the skin surface. Following injection of the formalin each animal is observed for the first 2 minutes of each 5 minute epoch for a total of 45 minutes. The cumulative length of licking for each 2 minute time period is measured. An animal receiving the requisite volume of vehicle is alternated with each mouse given the test drug. Animals are euthanized following the conclusion of the experiment. An n of 8 mice per group will be employed in this study.
Area under the curve (AUC) determination is made using the GraphPad Prism Version 3.03. Total AUC is calculated for both the test and control groups for both the acute and inflammatory phases. The AUC for individual animals for each phase is also calculated and converted to percentage of total AUC of control. The average percentages and SEM for both the drug treated and control are calculated and tested for significant difference.

Sprague-Dawley rats [2] = conditions: general statement, no dose given; cited from earlier work

SMILES: CC(=O)c1ccc2c(c1)[C@H](NC(=O)c1ccc(F)c(Cl)c1)[C@H](O)C(C)(C)O2 [Tonabersat, cis-6-acetyl-4-(S)-(3-chloro-4-fluorobenzoylamino)-3,4-dihydro-2,2-dimethyl-2H-1-benzopyran-3-(S)-ol]
- % Control (threshold for foot withdrawal relative to predrug mean) (Sprague-Dawley rats [1]; at time of peak effect 6.0 h, p = <0.05): 237.0%
- Time of peak effect (Sprague-Dawley rats [1]; threshold for foot withdrawal): 6.0 h
- Drug-treated AUC (duration of licking) (CF1 mouse; Acute Phase, Control AUC 185.8): 116.4
- % Inhibition of Control (CF1 mouse; Acute Phase, p = >0.05): 37.3%
- Drug-treated AUC (duration of licking) (CF1 mouse; Inflammatory Phase, Control AUC 446.7): 135.8
- % Inhibition of Control (CF1 mouse; Inflammatory Phase, p = <0.05): 69.6%

SMILES: NCC1(CC(=O)O)CCCCC1 [gabapentin]
- Activity in sciatic nerve ligation model (Sprague-Dawley rats [2]): active

SMILES: CC(C)C[C@H](CN)CC(=O)O [pregabalin]
- Activity in sciatic nerve ligation model (Sprague-Dawley rats [2]): active
